Laboratory results as given in patent US20240415791A1, “Therapeutic methods and compositions for treating cancer using devimistat and a fatty acid oxidation inhibitor, a tyrosine kinase inhibitor, a glutaminase inhibitor, and/or a glycolysis inhibitor” (Cornerstone Pharmaceuticals, Inc., priority 2021, published 2024).

Columns and labels:
Format in all cases: cell-based, human
AsPC1 cells [1] = assay: Devimistat-induced cell death (ATP after recovery) in AsPC1 cells; conditions: exogenous nutrient-free conditions
Method: Cells were plated at 80% confluency in complete RPMI in black, clear bottom 96-well plates or 35-mm dishes for ATP, protein and glycogen analysis, or glass coverslips for fluorescence visualization. […] Prior to drug treatment, cells were incubated in a nutrient-free carbonate buffered salt solution (CBS2) for 3 hours. Drug treatments were then carried out in CBS2 with addition of nutrient sources and/or chemical agents as described in the Examples and Figures.
(§1) LOGIC: High throughput, plate reader assays for cell death essentially always ultimately depend on metabolic activity of cells to identify viability, directly or indirectly. Thus, strong inhibition of metabolic activity by anti-metabolism agents like those described herein can confound cell death analysis by such assays. […] The inventors thus used a recovery-based assay wherein cells are treated with anti-metabolic agents under conditions where mitochondrial metabolism is (or becomes) limiting on viability. After experimental treatment, drug and media are removed and cells are allowed to recover in serum-free RPMI. RPMI provides high levels of glucose in support of glycolytic ATP generation (independently of mitochondrial function), allowing viable cells to recover ATP levels that are ultimately measured in the plate assay to score cell viability.
Survival is assessed by conventional luminescence measurement of ATP levels after this recovery.
TECHNICAL DETAILS: Immediately after drug treatments, acute ATP levels of cells in black, clear bottom 96-well plates were measured using the CellTiter-Glo® Luminescent Cell Viability Assay (catalog #G775B) following Promega (Madison, WI) protocols. […] After this recovery period ATP levels were measured using the CellTiter-Glo® Luminescent Cell Viability Assay as described above.
Survival is assessed by conventional luminescence measurement of ATP levels after this recovery. See the Methods section above for a detailed description of this assay and its validation.

PANC1 cells = assay: Devimistat-induced cell death (ATP after recovery) in PANC1 cells; conditions: exogenous nutrient-free conditions
Method: Cells were plated at 80% confluency in complete RPMI in black, clear bottom 96-well plates or 35-mm dishes for ATP, protein and glycogen analysis, or glass coverslips for fluorescence visualization. To create low nutritional conditions, cells were seeded in complete media, after 24 hours cells were transferred to serum free RPMI for 18-24 hours. Prior to drug treatment, cells were incubated in a nutrient-free carbonate buffered salt solution (CBS2) for 3 hours. Drug treatments were then carried out in CBS2 with addition of nutrient sources and/or chemical agents as described in the Examples and Figures.
as §1, with “cell viability. Under these conditions, cells that are committed to execution of cell death by the experimental treatment score as dead and cells that have not committed to cell death recover ATP levels and score as viable.” for “cell viability.”
Specifically, after exposure to the treatments indicated, cells are allowed to recover ([…]) in RPMI without serum. Survival is assessed by conventional luminescence measurement of ATP levels after this recovery.
TECHNICAL DETAILS: Immediately after drug treatments, acute ATP levels of cells in black, clear bottom 96-well plates were measured using the CellTiter-Glo® Luminescent Cell Viability Assay (catalog #G775B) following Promega (Madison, WI) protocols. To assess cell viability, after drug treatments, drug/agent-containing medium was replaced with serum-free RPMI and cells were incubated for an additional 17-24 hours to allow recovery of viable cells, without additional cell division. After this recovery period ATP levels were measured using the CellTiter-Glo® Luminescent Cell Viability Assay as described above.
A. Exogenous glucose protects from devimistat-induced cell death. Four different cell lines were exposed for 15 hours (PANC1, AsPC1, H460) or 8 hours (PC3) to the indicated range of devimistat doses in the absence of exogenous nutrients (in carbonate buffered balanced salts solution, CBS2) after 3 hours of preincubation in CBS2 (for cell adaptation and to equilibrate soluble nutrient pools). Cells were exposed to the treatments indicated, followed by recovery (24 hours) in RPMI without serum (providing nutrient support for viable cell recovery, without serum factors for cell division). Survival is assessed by conventional luminescence measurement of ATP levels after this recovery. […] The relatively large quantitative differences in devimistat sensitivity between cell lines under exogenous nutrient deprivation are characteristic of each line (see examples below), with small experiment-to-experiment variation. […]

AsPC1 cells [2] = assay: Glycogen content in AsPC1 cells; conditions: AsPC1, CBS2, 3 hours
Method: Glycogen was quantified using the Glycogen Assay Kit II (colorimetric) from AbCam (ab169558) according to manufacturer's instructions. Briefly, approximately 2×10^6 cells were washed with ice-cold PBS and collected via scraping in 300 μL ice-cold ddH2O. Cells were immediately sonicated on ice for 5× […] pulses with a probe sonicator (Misonix Inc, model XL2000), then heated to 80° C. for 10 min. Samples were stored O/N at −20° C., then thawed, centrifuged at 12,000×g for 10 min and the supernatants collected for glycogen hydrolysis and quantification according to manufacturer's instructions.
C. […] Cells were treated in CBS2 for 3 hours with 30 μM devimistat or mock treated (FIG. 2C, left), or treated for 3 hours with the indicated devimistat doses (FIG. 2C, right).
D. Effects of anti-metabolism agents on glycogen consumption in PANC1 and AsPC1 cells. […] Glycogen content was measured in cell lysates (see Methods, above) and the results are presented in the left and middle graphs in FIG. 3D (note the different vertical scales for PANC1 and AsPC1 plots).

What does the source list for `O=C(O)CCCCC(CCSCc1ccccc1)SCc1ccccc1` (stereo not drawn) [devimistat, 6,8-bis(benzylsulfanyl)octanoic acid]?
sensitivity of AsPC1 line to devimistat monotherapy (AsPC1 cells [1]): resistant to devimistat monotherapy; sensitivity of PANC1 line to devimistat monotherapy (PANC1 cells): sensitive to devimistat monotherapy; glycogen consumption (AsPC1 cells [2]): accelerated
